Converted amounts (≈) assume the structure as drawn. Read-outs that look alike come from different tables or passages of the source.
Columns and labels:
Format in all cases: physicochemical
[1] = high throughput solubility (HT-Solubility); settings: for water solubility (in words): see FIG. 10
[2] = high throughput permeability (HT-Permeability, log Pe); settings: PAMPA, Pe in cm/s
[3] = HT-logP o/w, high throughput assay based on artificial liquid membrane permeability
From the text: To be absorbed and transported by passive diffusion, drugs must be sufficiently lipophilic to penetrate the lipid cores of membranes, but not too lipophilic that they get retained and accumulated there. The lipophilictity of a compound is expressed by the octanol/water partition coefficient or distribution coefficient. A first approximation of substance polarity can either be given by computer assisted calculations giving Clog P values or by measurement of the partition coefficients in high-throughput assays (HT-log P o/w) (Faller et al., 2004; Wohnsland et al., 2001).
Octanol/water partition coefficients are measured in a high throughput assay based on artificial liquid membrane permeability. […] Still many approaches to calculate log P values are limited due to a lack of parameterization of certain fragments and fail with increasing molecular weight which implicates higher structural complexity. Similar problems and failures are observed in chromatographic determinations of log P: Peptides might undergo structural changes driven by interactions with the stationary phase. Decisive interactions between the stationary phase and the defolded analytes are therefore also based on the linear peptide sequence. For this reason measured HT-log P o/w values based on chromatographic assays employing stationary phases may lead to erroneous results.

[4] = pH 1, pH 1.0, read-out: HT-Solubility pH 1.0
[5] = pH 6.8, pH 6.8, read-out: HT-Solubility pH 6.8
[6] = pH 4, pH 4.0, read-out: HT-Permeability logPe pH 4.0 (converted)
[7] = pH 6.8, pH 6.8, read-out: HT-Permeability logPe pH 6.8 (converted)
[8] = pH 8, pH 8.0, read-out: HT-Permeability logPe pH 8.0 (converted)
[9] = octanol/water, read-out: HT LogP ohw
[10] = octanol/water; read-out: HT LogP ohw

Row | SMILES | solubility [1, 4] | solubility [1, 5] | water solubility (in words) [1] | Papp [2, 6] | Papp [2, 7] | Papp [2, 8] | logP [3, 9] | HT-Solubility pH 1.0 [1] | HT-Solubility pH 6.8 [1] | HT LogP ohw ([3]; octanol/water) | logP [3, 10]
1 | CC(C)[C@@H](CC(=O)N(C)CCc1ccccc1)NC(=O)C[C@H](CCCCN)NC(=O)[C@@H](Cc1c[nH]c2ccccc12)NC(=O)C[C@H](Cc1ccccc1)NC(=O)C12CC3CC(CC(C3)C1)C2 [Compound 27, Adamantoyl-(S)-β^3-HPhe-(R)-Trp-(S)-β^3-HLys-(R)-β^3-Leu-methyl-phenethyl-amide] | 45 µg/mL (≈ 50 µM) | 9 µg/mL (≈ 10 µM) | – | – | – | – | – | – | – | – | –
2 | CCN(CC)C(=O)C[C@@H](NC(=O)C[C@H](CCCCN)NC(=O)[C@@H](Cc1c[nH]c2ccccc12)NC(=O)C[C@H](Cc1ccccc1)NC(=O)CCc1ccccc1)C(C)C [Compound 24, Dihydrocinnemoyl-(S)-β^3-HPhe-(R)-Trp-(S)-β^3-HLys-(R)-β^3-Leu-diethyl-amide] | 16.2 µg/mL (≈ 20 µM) | 16.2 µg/mL (≈ 20 µM) | – | 0.1 ×10⁻⁶ cm/s | – | – | 4.1 | – | – | – | –
3 | CC(=O)N[C@H](CC(=O)N(C)[C@H](Cc1cn(C)c2ccccc12)C(=O)N[C@@H](CCCCN)CC(=O)N[C@@H]1CC(=O)O[C@@H]1C)Cc1ccccc1 [Compound 37, Ac—(S)-β^3-HPhe-(R)—N-Me-1-Me-Trp-(S)-β^3-HLys-(R)-4-amino-(R)-5-methyl-dihydro-furan-2-one] | 135 µg/mL (≈ 200 µM) | 67.5 µg/mL (≈ 100 µM) | – | 6.31 ×10⁻⁶ cm/s | 5.01 ×10⁻⁶ cm/s | – | 2.4 | – | – | – | –
4 | CC(=O)N[C@H](CC(=O)N[C@H](Cc1c[nH]c2ccccc12)C(=O)N[C@@H](CCCCN)CC(=O)N[C@H](CC(N)=O)[C@@H](C)O)Cc1ccccc1 [Compound 2, Ac—(S)-β^3-HPhe-(R)-Trp-(S)-β^3-HLys-(R), (R)—HThr-NH2] | 13.3 µg/mL (≈ 20 µM) | 13.3 µg/mL (≈ 20 µM) | – | 0.1 ×10⁻⁶ cm/s | – | – | – | – | – | – | –
5 | C[C@H]1OC(=O)C[C@H]1NC(=O)C[C@H](CCCCN)NC(=O)[C@@H](Cc1c[nH]c2ccccc12)NC(=O)C[C@@H](N)Cc1ccccc1 [Compound 29] | – | – | – | – | – | – | – | 0.121 g 1-1 | 0.121 g 1-1 | 3.3 | –
6 | CC(=O)N[C@H](CC(=O)N[C@H](Cc1c[nH]c2ccccc12)C(=O)N[C@@H](CCCCN)CC(=O)N[C@@H]1CC(=O)O[C@@H]1C)Cc1ccccc1 [Compound 7, Ac—(S)-β^3-HPhe-(R)-Trp-(S)-β^3-HLys-(R)-4-amino-(R)-5-methyl-dihydro-furan-2-one] | 129 µg/mL (≈ 200 µM) | 129 µg/mL (≈ 200 µM) | – | – | – | – | – | – | – | – | –
7 | CCCCCCN(C)C(=O)C[C@H](CCCCN)NC(=O)[C@@H](Cc1c[nH]c2ccccc12)N(Cc1ccccc1)C(=O)C[C@H](Cc1ccccc1)NC(=O)CC [Compound 69, Propionyl-(S)-β^3-HPhe-(R)—N-Benzyl-Trp-(S)-β^3-HLys-methyl-hexyl-amide] | – | – | does not allow for good water solubilities | – | – | – | – | 0.0751 g 1-1 | 0.015 g 1-1 | 5.1 | –
8 | C[C@@H](O)[C@@H](CC(N)=O)NC(=O)C[C@H](CCCCN)NC(=O)[C@@H](Cc1c[nH]c2ccccc12)NC(=O)C[C@H](Cc1ccccc1)NC(=O)C1CCCCC1 [Compound 26, Cyclohexanoyl-(S)-β^3-HPhe-(R)-Trp-(S)-β^3-HLys-(R), (R)—HThr-NH2] | 7.3 µg/mL (≈ 9.97 µM) | 1.5 µg/mL (≈ 2.05 µM) | – | – | – | – | 3.3 | – | – | – | –
9 | C[C@@H](O)[C@@H](CC(N)=O)NC(=O)C[C@H](CCCCN)NC(=O)[C@@H](Cc1c[nH]c2ccccc12)NC(=O)C[C@@H](N)Cc1ccccc1 [Compound 36, (S)-β^3-HPhe-(R)-Trp-(S)-β^3-HLys-(R), (R)—HThr-NH2] | 124 µg/mL (≈ 200 µM) | 124 µg/mL (≈ 200 µM) | – | 1.58 ×10⁻⁶ cm/s | – | 2 ×10⁻⁶ cm/s | – | – | – | – | –

Next, values leading:

Row | solubility [1, 4] | solubility [1, 5] | water solubility (in words) [1] | Papp [2, 6] | Papp [2, 7] | Papp [2, 8] | logP [3, 9] | HT-Solubility pH 1.0 [1] | HT-Solubility pH 6.8 [1] | HT LogP ohw ([3]; octanol/water) | logP [3, 10] | SMILES
10 | 127 µg/mL (≈ 200 µM) | 127 µg/mL (≈ 200 µM) | highest solubility values | 3.98 ×10⁻⁶ cm/s | 1.58 ×10⁻⁶ cm/s | 1 ×10⁻⁶ cm/s | 3 | – | – | – | – | CCCCCN(C)C(=O)C[C@H](CCCCN)NC(=O)[C@@H](Cc1c[nH]c2ccccc12)NC(=O)C[C@H](Cc1ccccc1)NC(C)=O [Compound 47, Ace-(S)-β^3-HPhe-(R)-Trp-(S)-β^3-HLys-methyl-pentyl-amide]
11 | 132 µg/mL (≈ 200 µM) | 132 µg/mL (≈ 200 µM) | – | 5.01 ×10⁻⁶ cm/s | 2 ×10⁻⁶ cm/s | 3.16 ×10⁻⁶ cm/s | 3.4 | – | – | – | – | CC(=O)N(C)[C@H](CC(=O)N[C@H](Cc1c[nH]c2ccccc12)C(=O)N[C@@H](CCCCN)CC(=O)N[C@@H]1CC(=O)O[C@@H]1C)Cc1ccccc1 [Compound 39, Ac—N-Me-(S)-β^3-HPhe-(R)-Trp-(S)-β^3-HLys-(R)-4-amino-(R)-5-methyl-dihydro-furan-2-one]
12 | 124 µg/mL (≈ 200 µM) | 30.9 µg/mL (≈ 49.9 µM) | – | 0.1 ×10⁻⁶ cm/s | – | – | 3.2 | – | – | – | – | CN[C@H](CC(=O)N[C@H](Cc1c[nH]c2ccccc12)C(=O)N[C@@H](CCCCN)CC(=O)N[C@@H]1CC(=O)O[C@@H]1C)Cc1ccccc1 [Compound 38, N-Me-(S)-β^3-HPhe-(R)-Trp-(S)-β^3-HLys-(R)-4-amino-(R)-5-methyl-dihydro-furan-2-one]
13 | 64.7 µg/mL (≈ 100 µM) | 12.9 µg/mL (≈ 19.9 µM) | – | 2.51 ×10⁻⁶ cm/s | 0.1 ×10⁻⁶ cm/s | – | 3.7 | – | – | – | – | CCCCCNC(=O)C[C@H](CCCCN)NC(=O)[C@@H](Cc1c[nH]c2ccccc12)NC(=O)C[C@H](Cc1ccccc1)NC(=O)CCC [Compound 55, Butyroyl-(S)-β^3-HPhe-(R)-Trp-(S)-β^3-HLys-pentyl-amide]
14 | 112 µg/mL (≈ 200 µM) | 112 µg/mL (≈ 200 µM) | – | 3.16 ×10⁻⁶ cm/s | 7.94 ×10⁻⁶ cm/s | 1.26 ×10⁻⁶ cm/s | – | – | – | – | – | CCC(=O)N[C@H](CC(=O)N[C@H](Cc1c[nH]c2ccccc12)C(=O)N[C@@H](CCCCN)CC(N)=O)Cc1ccccc1 [Compound 60, Propionyl-(S)-β^3-HPhe-(R)-Trp-(S)-β^3-HLys-NH2]
15 | 66.1 µg/mL (≈ 100 µM) | 13.2 µg/mL (≈ 20 µM) | – | 0.1 ×10⁻⁶ cm/s | – | – | 3.3 | – | – | – | – | CC(=O)N[C@H](CC(=O)N(C)[C@H](Cc1c[nH]c2ccccc12)C(=O)N[C@@H](CCCCN)CC(=O)N[C@@H]1CC(=O)O[C@@H]1C)Cc1ccccc1 [Compound 40, Ac—(S)-β^3-HPhe-(R)—N-Me-Trp-(S)-β^3-HLys-(R)-4-amino-(R)-5-methyl-dihydro-furan-2-one]
16 | 127 µg/mL (≈ 200 µM) | – | medium to good | – | – | – | – | – | – | – | 3.4 | CCCCCNC(=O)C[C@H](CCCCN)NC(=O)[C@@H](Cc1c[nH]c2ccccc12)NC(=O)C[C@H](Cc1ccccc1)NC(=O)CC [Compound 50]
17 | – | – | medium to good | – | – | – | – | 0.1236 g 1-1 | 0.0619 g 1-1 | 3.2 | – | CCCCCNC(=O)C[C@H](CCCCN)NC(=O)[C@@H](Cc1c[nH]c2ccccc12)NC(=O)C[C@H](Cc1ccccc1)NC(C)=O [Compound 45, Ace-(S)-β^3-HPhe-(R)-Trp-(S)-β^3-HLys-pentyl-amide]
18 | 132 µg/mL (≈ 200 µM) | 132 µg/mL (≈ 200 µM) | highest solubility values | – | – | – | – | – | – | – | 3.9 | CCCCCN(C)C(=O)C[C@H](CCCCN)NC(=O)[C@@H](Cc1c[nH]c2ccccc12)N(C)C(=O)C[C@H](Cc1ccccc1)NC(=O)CC [Compound 63, Propionyl-(S)-β^3-HPhe-(R)—N-Me-Trp-(S)-β^3-HLys-methyl-pentyl-amide]
19 | 110 µg/mL (≈ 200 µM) | 110 µg/mL (≈ 200 µM) | – | 1 ×10⁻⁶ cm/s | 5.01 ×10⁻⁶ cm/s | – | – | – | – | – | – | CC(=O)N[C@H](CC(=O)N[C@H](Cc1c[nH]c2ccccc12)C(=O)N[C@@H](CCCCN)CC(N)=O)Cc1ccccc1 [Compound 58, Ace-(S)-β^3-HPhe-(R)-Trp-(S)-β^3-HLys-NH2]
